What all share (assay type): biochemical
For assay [1], the target named is purified recombinant human JAK1 protein (Homo sapiens (Human), UniProt P23458). Description: JAK1 kinase-inhibiting activity (mobility shift, LabChip EZ Reader II). The conditions noted are these: ATP 75 μM, 25° C., 120 minutes. The procedure: 1) Measurement of JAK1 Kinase-Inhibiting Activity
The activity of the compound of the present invention to inhibit the activity of JAK1 kinase was measured.
Among materials for the measurement of this inhibiting activity, a substrate peptide and a kinase protein were acquired as follows. As such a substrate peptide, a substrate peptide for QSS Assist JAK1-MSA assay kit (Carna Biosciences, Inc.) was purchased. As such a kinase protein, a purified recombinant human JAK1 protein (Carna Biosciences, Inc.) was purchased.
The method for measuring the inhibiting activity is as follows. First, the compounds of the present invention were each dissolved in dimethyl sulfoxide (DMSO), and a serial dilution was then prepared using DMSO. Subsequently, a serial dilution solution of the compound (the final concentration of DMSO upon a kinase reaction: 5.0%) or DMSO (final concentration: 5.0%) was mixed with a solution comprising the substrate peptide (final concentration: 1 μM), magnesium chloride (final concentration: 5 mM) and ATP (final concentration: 75 μM) in a buffer for kinase reaction (20 mM HEPES (pH 7.5), 2 mM dithiothreitol and 0.01% Triton X-100). Thereafter, a JAK1 protein was further added to the mixed solution, and the obtained mixture was then incubated at 25° C. for 120 minutes to carry out a kinase reaction. To the reaction solution, EDTA was added to a final concentration of 30 mM, so as to terminate the reaction. Finally, using LabChip EZ Reader II (Perkin Elmer Corp.), an unphosphorylated substrate peptide (S) and a phosphorylated peptide (P) were subjected to microchannel capillary electrophoresis, so that the two peptides were separated from each other and were then detected. The amount of a phosphorylation reaction was obtained based on the heights of the peaks of S and P, and the concentration of the compound capable of inhibiting 50% of the phosphorylation reaction was defined as an IC50 value (nM).

Assay [2] addresses purified recombinant human JAK3 protein (Homo sapiens (Human), UniProt P52333). As to the kind of experiment: JAK3 kinase-inhibiting activity (mobility shift, LabChip EZ Reader II). The conditions noted are these: for IC50: ATP 5 μM, 25° C., 80 minutes. The procedure:
3) Measurement of JAK3 Kinase-Inhibiting Activity
The activity of the compound of the present invention to inhibit the activity of JAK3 kinase was measured.
Among materials for the measurement of this inhibiting activity, a substrate peptide and a kinase protein were acquired as follows. As such a substrate peptide, a substrate peptide for QSS Assist JAK3-MSA assay kit (Carna Biosciences, Inc.) was purchased. As such a kinase protein, a purified recombinant human JAK3 protein (Carna Biosciences, Inc.) was purchased.
The method for measuring the inhibiting activity is as follows. First, a serial dilution of the compound of the present invention was prepared by the same method as that described in the above section regarding JAK1. This serial dilution solution (the final concentration of DMSO upon a kinase reaction: 5.0%) or DMSO (final concentration: 5.0%) was mixed with a solution comprising the substrate peptide (final concentration: 1 μM), magnesium chloride (final concentration: 5 mM) and ATP (final concentration: 5 μM) in a buffer for kinase reaction (20 mM HEPES (pH 7.5), 2 mM dithiothreitol and 0.01% Triton X-100). Thereafter, a JAK3 protein was further added to the mixed solution, and the obtained mixture was then incubated at 25° C. for 80 minutes to carry out a kinase reaction. To the reaction solution, EDTA was added to a final concentration of 30 mM, so as to terminate the reaction. After termination of the reaction, the measurement and the data analysis were carried out by the same methods as those described in the above section regarding JAK1.

Assay [3] concerns the target purified recombinant human JAK2 protein (Homo sapiens (Human), UniProt O60674). Description: JAK2 kinase-inhibiting activity (mobility shift, LabChip EZ Reader II). The conditions noted are these: ATP 10 μM, 25° C., 80 minutes. The procedure: 2) Measurement of JAK2 Kinase-Inhibiting Activity
The activity of the compound of the present invention to inhibit the activity of JAK2 kinase was measured.
Among materials for the measurement of this inhibiting activity, a substrate peptide and a kinase protein were acquired as follows. As such a substrate peptide, FL-Peptide 22 (Perkin Elmer Corp.) was purchased. As such a kinase protein, a purified recombinant human JAK2 protein (Carna Biosciences, Inc.) was purchased.
The method for measuring the inhibiting activity is as follows. First, a serial dilution of the compound of the present invention was prepared by the same method as that described in the above section regarding JAK1. This serial dilution solution (the final concentration of DMSO upon a kinase reaction: 5.0%) or DMSO (final concentration: 5.0%) was mixed with a solution comprising the substrate peptide (final concentration: 1 μM), magnesium chloride (final concentration: 10 mM) and ATP (final concentration: 10 μM) in a buffer for kinase reaction (15 mM Tris (pH 7.5), 2 mM dithiothreitol and 0.01% Tween 20). Thereafter, a JAK2 protein was further added to the mixed solution, and the obtained mixture was then incubated at 25° C. for 80 minutes to carry out a kinase reaction. To the reaction solution, EDTA was added to a final concentration of 30 mM, so as to terminate the reaction. After termination of the reaction, the measurement and the data analysis were carried out by the same methods as those described in the above section regarding JAK1.

Chain of purified recombinant human JAK3 protein (P52333 whole entry): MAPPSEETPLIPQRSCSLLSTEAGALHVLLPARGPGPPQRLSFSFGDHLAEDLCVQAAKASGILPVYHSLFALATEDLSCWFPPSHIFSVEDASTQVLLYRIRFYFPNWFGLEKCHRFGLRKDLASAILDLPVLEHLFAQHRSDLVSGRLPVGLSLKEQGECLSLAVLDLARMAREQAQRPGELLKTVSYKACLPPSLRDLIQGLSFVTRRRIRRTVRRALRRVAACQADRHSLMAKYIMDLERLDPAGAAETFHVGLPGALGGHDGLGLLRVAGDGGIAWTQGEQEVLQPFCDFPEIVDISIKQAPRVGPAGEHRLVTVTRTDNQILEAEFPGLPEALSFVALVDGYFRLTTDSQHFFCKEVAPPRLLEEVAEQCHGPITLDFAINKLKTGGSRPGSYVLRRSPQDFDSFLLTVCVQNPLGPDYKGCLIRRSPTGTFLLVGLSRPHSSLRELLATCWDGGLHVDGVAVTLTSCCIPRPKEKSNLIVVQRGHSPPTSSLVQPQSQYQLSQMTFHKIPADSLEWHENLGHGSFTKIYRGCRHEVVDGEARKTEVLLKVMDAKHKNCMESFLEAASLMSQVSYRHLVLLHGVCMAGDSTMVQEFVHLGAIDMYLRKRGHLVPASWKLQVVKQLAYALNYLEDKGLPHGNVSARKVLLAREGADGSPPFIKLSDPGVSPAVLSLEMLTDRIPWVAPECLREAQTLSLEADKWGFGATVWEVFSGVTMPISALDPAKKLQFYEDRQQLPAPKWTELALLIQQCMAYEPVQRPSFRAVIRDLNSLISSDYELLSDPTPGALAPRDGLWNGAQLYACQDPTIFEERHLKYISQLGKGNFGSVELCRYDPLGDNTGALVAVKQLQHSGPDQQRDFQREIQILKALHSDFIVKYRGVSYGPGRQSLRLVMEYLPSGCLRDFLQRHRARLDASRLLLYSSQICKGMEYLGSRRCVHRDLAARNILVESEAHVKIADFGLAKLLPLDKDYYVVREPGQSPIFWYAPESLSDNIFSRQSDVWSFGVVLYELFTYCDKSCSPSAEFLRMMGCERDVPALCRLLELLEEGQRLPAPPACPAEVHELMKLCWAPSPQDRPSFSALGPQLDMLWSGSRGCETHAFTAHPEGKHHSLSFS
Chain of purified recombinant human JAK1 protein (P23458 whole entry): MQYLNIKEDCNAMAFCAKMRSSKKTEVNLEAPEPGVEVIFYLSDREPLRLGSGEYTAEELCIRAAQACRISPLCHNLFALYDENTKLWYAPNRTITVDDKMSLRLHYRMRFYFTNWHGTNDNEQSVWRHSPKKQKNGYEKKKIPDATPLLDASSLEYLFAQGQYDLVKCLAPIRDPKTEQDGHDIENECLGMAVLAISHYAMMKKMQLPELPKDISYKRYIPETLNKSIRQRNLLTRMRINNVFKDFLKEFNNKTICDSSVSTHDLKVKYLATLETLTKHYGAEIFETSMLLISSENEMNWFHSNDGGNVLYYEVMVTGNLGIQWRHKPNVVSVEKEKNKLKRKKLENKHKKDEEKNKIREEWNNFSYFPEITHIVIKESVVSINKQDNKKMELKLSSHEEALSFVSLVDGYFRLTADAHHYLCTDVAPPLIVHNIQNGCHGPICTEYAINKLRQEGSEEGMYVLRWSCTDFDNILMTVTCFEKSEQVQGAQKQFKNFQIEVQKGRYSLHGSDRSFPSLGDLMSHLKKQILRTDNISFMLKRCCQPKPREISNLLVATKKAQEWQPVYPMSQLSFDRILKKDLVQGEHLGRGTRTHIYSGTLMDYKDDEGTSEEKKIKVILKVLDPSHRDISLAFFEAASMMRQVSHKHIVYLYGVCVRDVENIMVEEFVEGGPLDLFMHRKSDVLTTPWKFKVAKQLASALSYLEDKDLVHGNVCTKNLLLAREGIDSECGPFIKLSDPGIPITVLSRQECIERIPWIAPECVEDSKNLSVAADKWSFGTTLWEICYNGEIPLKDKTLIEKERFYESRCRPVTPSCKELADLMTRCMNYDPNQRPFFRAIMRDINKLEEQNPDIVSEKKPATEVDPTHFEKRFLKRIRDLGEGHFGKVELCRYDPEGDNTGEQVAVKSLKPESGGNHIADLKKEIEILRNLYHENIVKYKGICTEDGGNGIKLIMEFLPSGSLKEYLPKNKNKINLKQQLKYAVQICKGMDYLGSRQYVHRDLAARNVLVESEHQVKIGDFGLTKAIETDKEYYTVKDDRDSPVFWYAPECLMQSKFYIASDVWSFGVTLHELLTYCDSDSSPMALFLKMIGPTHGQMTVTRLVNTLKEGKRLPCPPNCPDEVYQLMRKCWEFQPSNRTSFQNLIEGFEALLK
Chain of purified recombinant human JAK2 protein (O60674 whole entry): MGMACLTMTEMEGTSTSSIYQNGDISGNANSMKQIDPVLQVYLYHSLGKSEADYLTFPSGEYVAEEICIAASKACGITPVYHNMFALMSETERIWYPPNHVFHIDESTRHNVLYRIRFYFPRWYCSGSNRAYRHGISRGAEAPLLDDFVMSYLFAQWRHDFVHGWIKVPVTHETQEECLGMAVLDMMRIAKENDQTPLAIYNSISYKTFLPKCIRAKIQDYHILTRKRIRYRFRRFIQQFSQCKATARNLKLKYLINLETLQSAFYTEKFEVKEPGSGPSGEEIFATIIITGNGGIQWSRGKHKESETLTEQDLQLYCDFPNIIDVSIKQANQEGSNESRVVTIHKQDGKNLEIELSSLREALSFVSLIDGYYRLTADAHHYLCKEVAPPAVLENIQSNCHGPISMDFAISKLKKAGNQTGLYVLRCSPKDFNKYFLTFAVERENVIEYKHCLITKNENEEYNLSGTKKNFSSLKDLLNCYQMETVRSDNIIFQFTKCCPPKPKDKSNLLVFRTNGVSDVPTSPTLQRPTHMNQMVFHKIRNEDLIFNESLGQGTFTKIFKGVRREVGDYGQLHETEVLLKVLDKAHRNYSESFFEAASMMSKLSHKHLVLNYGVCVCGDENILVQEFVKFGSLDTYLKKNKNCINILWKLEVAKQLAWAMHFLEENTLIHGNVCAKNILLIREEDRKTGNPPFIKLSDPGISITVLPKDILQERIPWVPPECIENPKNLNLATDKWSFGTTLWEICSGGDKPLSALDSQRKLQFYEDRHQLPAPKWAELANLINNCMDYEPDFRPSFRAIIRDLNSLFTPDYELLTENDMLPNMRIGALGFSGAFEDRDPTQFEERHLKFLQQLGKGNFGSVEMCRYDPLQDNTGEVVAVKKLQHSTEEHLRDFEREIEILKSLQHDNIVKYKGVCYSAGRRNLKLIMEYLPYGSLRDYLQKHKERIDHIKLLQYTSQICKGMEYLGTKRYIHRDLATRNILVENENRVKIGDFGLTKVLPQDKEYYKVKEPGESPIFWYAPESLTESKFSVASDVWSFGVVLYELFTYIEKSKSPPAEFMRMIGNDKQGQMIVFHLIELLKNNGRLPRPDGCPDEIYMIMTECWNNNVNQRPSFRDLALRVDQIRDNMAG

Usually IC50 stands for the concentration needed to halve the response being measured. `C=C(C)C(=O)NC1CCC=C(c2ncnc3[nH]cc(-c4ccccc4)c23)C1` (stereo not shown) [Comparative Example 1, N-(3-(5-Phenyl-7H-pyrrolo[2,3-d]pyrimidin-4-yl)cyclohex-3-en-1-yl)methacrylamide, reference compound]: the IC50 in assay [1] stood at 880 nM; in assay [2] it was 44 nM. In addition, the “JAK3-inhibiting activity attenuated in comparison to the compound of the present invention” value (“JAK3-inhibiting activity attenuated” below) in assay [2] (in terms of IC50 value) is listed as ≥ 20 times.
For `C/C=C/C(=O)NC1CCC=C(c2ncnc3[nH]cc(-c4ccccc4)c23)C1` (stereo not shown) [Comparative Example 2, (E)-N-(3-(5-Phenyl-7H-pyrrolo[2,3-d]pyrimidin-4-yl)cyclohex-3-en-1-yl)but-2-enamide, reference compound] the same measures were 730 nM, 27 nM and ≥ 20 times.
Turning to `C=CC(=O)NC1CCC=C(c2ncnc3[nH]cc(-c4ncccn4)c23)C1` (stereo not shown) [Comparative Example 8, N-(3-(5-(Pyrimidin-2-yl)-7H-pyrrolo[2,3-d]pyrimidin-4-yl)cyclohex-3-en-1-yl)acrylamide, reference compound], the results for the IC50 in assay [3] and in assay [2] were > 10000 nM and 21.4 nM, respectively. In addition, in assay [2] (in terms of IC50 value), the “JAK3-inhibiting activity attenuated” value is ≥ 20 times.
Take `C1=C(c2ncnc3[nH]ccc23)CCCC1` [Comparative Example 10, 4-(Cyclohex-1-en-1-yl)-7H-pyrrolo[2,3-d]pyrimidine, reference compound]: the values for the half-maximal inhibitory concentration (IC50) in assay [1], in assay [3] and in assay [2] were 414 nM, 166 nM and 125 nM, respectively. In assay [2] (in terms of IC50 value), the “JAK3-inhibiting activity attenuated” value is ≥ 100 times. The “selectivity to JAK3 versus JAK1 or JAK2” value in assay [2] (in terms of IC50 value) is “not observed”.
Turning to `C=CC(=O)NC1CCC=C(c2ncnc3[nH]cc(-c4ccccc4)c23)C1` (stereo not shown) [Compound 1, N-(3-(5-phenyl-7H-pyrrolo[2,3-d]pyrimidin-4-yl)cyclohex-3-en-1-yl)acrylamide], the IC50 in assay [1] was 880 nM; in assay [3] it was 470 nM; in assay [2] it was < 0.3 nM.
In the case of `C=CC(=O)NC1CCC=C(c2ncnc3[nH]cc(-c4ccsc4)c23)C1` (stereo not shown) [Compound 3, N-(3-(5-(Thiophen-3-yl)-7H-pyrrolo[2,3-d]pyrimidin-4-yl)cyclohex-3-en-1-yl)acrylamide], the IC50 in assay [1] is 1500 nM; in assay [3], 850 nM; in assay [2] it was < 0.3 nM.
For `C=CC(=O)NC1CCC=C(c2ncnc3[nH]cc(-c4ccoc4)c23)C1` (stereo not shown) [Compound 4, N-(3-(5-(Furan-3-yl)-7H-pyrrolo[2,3-d]pyrimidin-4-yl)cyclohex-3-en-1-yl)acrylamide] the same measures were 2900 nM, 1300 nM and 0.42 nM.
As for `C=CC(=O)NC1C=C(c2ncnc3[nH]cc(-c4ccccc4)c23)CC1` (stereo not shown) [Compound 10, N-(3-(5-Phenyl-7H-pyrrolo[2,3-d]pyrimidin-4-yl)cyclopent-2-en-1-yl)acrylamide], the half-inhibitory concentration (IC50) in assay [3] was 660 nM; in assay [2], 0.68 nM.
In the case of `C=CC(=O)NC1C=C(c2ncnc3[nH]cc(-c4ccccc4)c23)CCC1` (stereo not shown) [Compound 12, N-(3-(5-Phenyl-7H-pyrrolo[2,3-d]pyrimidin-4-yl)cyclohex-2-en-1-yl)acrylamide], the IC50 in assay [1] was 3200 nM; in assay [3], 870 nM; in assay [2], 0.35 nM.
Regarding `C=CC(=O)NC1C=C(c2ncnc3[nH]cc(-c4ccco4)c23)CCC1` (stereo not shown) [Compound 15, N-(3-(5-(Furan-2-yl)-7H-pyrrolo[2,3-d]pyrimidin-4-yl)cyclohex-2-en-1-yl)acrylamide], the IC50 was found to be 2600 nM in assay [1], 450 nM in assay [3] and 0.33 nM in assay [2].
Turning to `C=CC(=O)NC1C=C(c2ncnc3[nH]cc(-c4ccoc4)c23)CCC1` (stereo not shown) [Compound 16, N-(3-(5-(Furan-3-yl)-7H-pyrrolo[2,3-d]pyrimidin-4-yl)cyclohex-2-en-1-yl)acrylamide], the IC50 was 4900 nM in assay [1], 1000 nM in assay [3] and 0.77 nM in assay [2].
